{"source": "patent US20250172577A1", "about": "“METHODS FOR THE DETECTION AND TREATMENT OF CANCER” (Board of Regents, The University of Texas System, priority 2022, published 2025)", "key": {"LGKC 4301 cells": {"tested_on": "LGKC 4301 cells", "experiment": "In vitro toxicity assay (MTS assay), mouse IPMN cell line LGKC 4301", "assay_type": "cell-based", "settings": "vs vehicle control", "experimental": "(§1) Experiments were performed in technical triplicates. Statistical significance was determined by 2-sided Student T-test. […] UGT8 inhibitor UGT8-IN-1 or vehicle control (saline) was orally administrated every other day (3 mg/kg) from day-8 post cancer cell implantation for 2 weeks. Tumor volume was measured every 3 days. Statistical significance was determined by 2-way repeated measures ANOVA and treatment factor 2-sided p-value reported.\n(§2) In vitro toxicity assays (MTS assays) were performed using three independent mouse IPMN cell lines (LGKC 4301, LGKC 4838, and LGKC 4861). Briefly, each cell line was treated with either vehicle control or the UGT8 inhibitors UGT8-IN-1 or zoledronic acid. Experiments were performed in technical triplicates. Statistical significance was determined by 2-sided Student T-test."}, "LGKC 4838 cells": {"tested_on": "LGKC 4838 cells", "experiment": "In vitro toxicity assay (MTS assay), mouse IPMN cell line LGKC 4838", "assay_type": "cell-based", "settings": "vs vehicle control", "experimental": "as §1, §2"}, "[1]": {"experiment": "In vitro toxicity assay (MTS assay), mouse IPMN cell line LGKC 4861", "assay_type": "cell-based", "experimental": "as §1, §2"}, "[2]": {"tested_on": "mouse IPMN cell line LGKC 4861", "experiment": "Subcutaneous LGKC 4861 implant in athymic nude mice, tumor volume", "assay_type": "in vivo", "settings": "3 mg/kg orally every other day from day 8 for 2 weeks, vs vehicle (saline)"}, "UGT8": {"target": "T1, UGT8 (Mus musculus, UniProt Q64676)", "T1 construct": "host or cells: mouse (in vivo, endogenous enzyme)", "T1 sequence (Q64676 21-541)": "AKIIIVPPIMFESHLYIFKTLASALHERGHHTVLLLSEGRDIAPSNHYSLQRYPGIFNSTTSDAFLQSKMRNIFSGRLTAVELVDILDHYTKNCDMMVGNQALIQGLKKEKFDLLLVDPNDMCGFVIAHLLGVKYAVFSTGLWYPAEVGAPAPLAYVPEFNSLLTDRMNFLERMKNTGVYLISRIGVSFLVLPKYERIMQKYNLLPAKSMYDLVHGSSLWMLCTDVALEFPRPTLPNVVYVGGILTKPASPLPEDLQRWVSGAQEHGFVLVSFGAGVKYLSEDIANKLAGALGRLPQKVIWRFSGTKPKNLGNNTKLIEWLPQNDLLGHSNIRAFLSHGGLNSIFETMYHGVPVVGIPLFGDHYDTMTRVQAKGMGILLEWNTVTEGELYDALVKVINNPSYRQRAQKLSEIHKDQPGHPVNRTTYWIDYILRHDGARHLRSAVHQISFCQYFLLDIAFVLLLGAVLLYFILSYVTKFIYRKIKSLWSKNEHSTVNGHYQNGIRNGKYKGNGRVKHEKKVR", "settings": "cited from earlier work"}}, "note": "Read-outs that look alike come from different tables or passages of the source.", "data": [{"smiles": "O=P(O)(O)C(O)(Cn1ccnc1)P(=O)(O)O", "note": "[zoledronic acid, Zoledronic acid]", "values": [{"measurement": "effect on cell viability (comparison of the two UGT8 inhibitors)", "setting": "LGKC 4301 cells", "value": "performed similarly"}, {"measurement": "reduction in cell viability (comparison of the two UGT8 inhibitors)", "setting": "LGKC 4838 cells", "value": "greater reduction in cell viability than UGT8-IN-1"}, {"measurement": "cytotoxicity", "setting": "[1]; LGKC 4861 mouse IPMN cells, LGKC 4861 cells, MTS assay, vs vehicle control, read-out: reduction in cell viability", "value": "~55", "unit": "%"}]}, {"smiles": "CNC(=O)c1csc2c(C(F)(F)F)cc(N3CCC(OC(=O)NC(C)COC(F)(F)F)CC3)nc12", "note": "(stereo in doubt) [UGT8-IN-1, [1-[3-(methylcarbamoyl)-7-(trifluoromethyl)thieno[3,2-b]pyridin-5-yl]piperidin-4-yl]N-[(2S)-1-(trifluoromethoxy)propan-2-yl]carbamate]", "values": [{"measurement": "effect on cell viability (comparison of the two UGT8 inhibitors)", "setting": "LGKC 4301 cells", "value": "slightly more effective"}, {"measurement": "cytotoxicity", "setting": "[1]", "value": "~80", "unit": "%"}, {"measurement": "tumor volume", "setting": "[2]", "value": "lower tumor volume compared to vehicle"}, {"measurement": "inhibition of incorporation of 13C-Gal into GalCer and sulfatide", "setting": "UGT8; 3 mg/kg", "value": "> 90", "unit": "%"}, {"measurement": "effective dose (ED)50", "setting": "UGT8; incorporation of 13C-Gal into GalCer and sulfatide", "value": 1, "unit": "mg/kg"}]}]}
